From patent publication US9856210B2, “Pharmaceutical composition for prevention and treatment of amyotrophic lateral sclerosis” (Kyoto University, priority 2010, dated 2018)

Legend:
SOD1 = assay: Western blotting of intracellular SOD1 in iPS cell-derived astrocytes; format: cell-based, human; settings: astrocytes from ALS patient iPS cells; 1 μM, 3 μM, 10 μM and 30 μM; 48 hours; β-actin internal standard (FIG. 3D)
Method: A 4-mm skin biopsy was cultured for 3 weeks, and the resulting cells in culture were used as the fibroblasts derived from an ALS patient.
Human cDNAs for KLF4, Sox2, Oct3/4 and c-Myc were transferred to the above-described fibroblasts using a retrovirus, as described by Takahashi K et al. in Cell 131(5), 861, 2007. On day 6 after the gene transfer, the fibroblasts were transferred onto SNL feeder cells. The following day, the medium was replaced with a primate ES cell culture broth supplemented with 4 ng/ml of bFGF (Wako). The medium was exchanged every two days; 30 days after the gene transfer, colonies were picked up.
Neurospheres were formed by a slightly modified version of the method described by Wada T et al. in PLoS ONE 4(8), e6722, 2009. […]
The iPS cell-derived astrocytes were seeded to a 6-well plate at a density of 250,000 cells/well. […] After the incubation, the amount expressed was detected by ECL (Enhanced ChemiLuminescence) using an HRP-linked anti-rabbit IgG antibody (1:5000; GE healthcare) and an HRP-linked anti-mouse IgG antibody (1:5000; GE healthcare).

human SOD1 (hSOD1) mRNA = assay: Human SOD1 mRNA in spinal cord of human SOD1 (G93A) transgenic mice (PCR); format: in vivo, mouse; settings: 60 mg/kg/day oral, 5 days a week for 4 weeks, vs solvent control; relative to β-actin (FIG. 4)
Method: (§1) To 8-week-old human SOD1 (G93A) transgenic mice (The Jackson Laboratory) were orally administered sorafenib (60 mg/kg/day) dissolved in 95% ethanol and Cremophol EL or solvent alone as a control, each to 3 mice, 5 days a week for 4 weeks. After administration, the spinal cord was removed. Total RNA was extracted and human and mouse SOD1 mRNA amounts were measured by PCR.

mouse SOD1 (mSOD1) mRNA = assay: Mouse SOD1 mRNA in spinal cord of human SOD1 (G93A) transgenic mice (PCR); format: in vivo; settings: 60 mg/kg/day oral, 5 days a week for 4 weeks, vs solvent control; relative to β-actin (FIG. 4)
Method: as §1

CNC(=O)c1cc(Oc2ccc(NC(=O)Nc3ccc(Cl)c(C(F)(F)F)c3)cc2)ccn1 [sorafenib]
expression of SOD1 (western blotting) (SOD1): a reduction in the expression of SOD1 was observed
human SOD1 mRNA amount in spinal cord (human SOD1 (hSOD1) mRNA): significantly decreased
mouse SOD1 mRNA amount in spinal cord (mouse SOD1 (mSOD1) mRNA): significantly decreased
